# Reference: paper PMC3384541 (Cancer discovery, 2012)
# Assays:
# HCC1954 tumors = assay: Xenograft tumor growth; format: in vivo, mice; conditions: PTEN wild-type
# [1] = test system: HCC70, MDA-MB-468, BT549 and PC3 cell lines; assay: Western blot of AKT phosphorylation in PTEN-null cancer cell lines; format: cell-based, human
# [2] = test system: HMEC-CA-p110α, HMEC-CA-p110β, HMEC-CA-p110δ; format: cell-based, human; conditions: isogenic HMEC-CA-p110 lines, serum-free, western blot
# Rat1-CA-p110α tumors [3] = assay: In vivo pharmacodynamics, pAKT in tumor lysates; set-up: species or system mice; conditions: after single IP injection 10 mg/kg
# HCC70 tumors = assay: Xenograft tumor growth; format: in vivo, mice; conditions: PTEN-deficient; IP, 20 mg/kg, BID
# PC3 tumors = assay: Xenograft tumor growth; format: in vivo, mice; conditions: PTEN-deficient; IP, 20 mg/kg, BID
# Rat1-CA-p110β tumors [4] = assay: In vivo pharmacodynamics, pAKT in tumor lysates; set-up: species or system mice; conditions: 1 hour after single IP injection 10 mg/kg
# panel of 433 kinases = assay: KinomeScan kinase selectivity profile; format: binding; conditions: 10 µM
# [5] = test system: panel of 422 cancer cell lines; assay: High-throughput cell viability assay; format: cell-based, human; conditions: threshold EC50 < 5 µM, 72 h treatment
# HMEC-CA-p110β = assay: BacMam-enabled LanthaScreen cellular assay; format: cell-based; conditions: Homo sapiens, read-out: IC50 in cell culture
# Rat1-CA-p110α tumors [6] = assay: Xenograft tumor growth; format: in vivo, mice; conditions: IP 20 mg/kg once or twice daily
# In vivo pharmacokinetics = assay: In vivo pharmacokinetics; set-up: species or system mice
# Rat1-CA-p110β tumors [7] = assay: Xenograft tumor growth; format: in vivo, mice; conditions: IP 20 mg/kg once or twice daily
# [8] = single IP injection 10 mg/kg, tumor-bearing mice
smiles,measurement,setting,value
"CS(=O)(=O)N1CCN(Cc2cc3nc(-c4cccc5[nH]ncc45)nc(N4CCOCC4)c3s2)CC1 [GDC-0941, reference compound]",tumor growth,"HCC1954 tumors; PO, 150 mg/kg, QD",responded to treatment
Cc1ccccc1-n1c(Cn2cnc3c(N)ncnc32)nc2cccc(C)c2c1=O [IC87114],effect on AKT phosphorylation,[1],had much less effect
same,inhibition of phosphorylation of AKT at Thr308 and Ser473,[2],in a dose-dependent manner
"Cc1cc([C@@H](C)Nc2ccccc2C(=O)O)c2nc(N3CCOCC3)cc(=O)n2c1 [KIN-193, (−)2-[1-(7-Me-2-(morpholin-4-yl)-4-oxo-4H-pyrido[1,2-a]pyrimidin-9-yl)ethylamino]benzoic acid]",phosphorylation of AKT in tumor lysates,Rat1-CA-p110α tumors [3],remained unchanged
same,tumor growth,HCC70 tumors,significantly inhibited tumor growth
same,tumor growth,PC3 tumors,significantly inhibited tumor growth
same,effect on AKT phosphorylation,[1],significantly inhibited AKT phosphorylation
same,phosphorylation of AKT in tumor lysates,Rat1-CA-p110β tumors [4],significantly reduced
same,inhibitor-kinase interaction profile,panel of 433 kinases,highly selective in its interaction with PI3Ks
same,cell lines with PTEN mutations sensitive to compound,[5]; 20 out of 57 lines,35%
same,cell lines with wild-type PTEN sensitive to compound,[5]; 58 out of 365 lines,16%
same,IC50,HMEC-CA-p110β,0.1 to 0.5 µM
same,tumor growth,"HCC1954 tumors; IP, 20 mg/kg, BID",failed to block the growth
same,tumor growth,Rat1-CA-p110α tumors [6],little effect
same,IC50,"In vivo pharmacokinetics; Mus musculus, read-out: IC50 / level reached in vivo",≤ 1 µM
same,optimal route for robust in vivo exposure,In vivo pharmacokinetics; mice,intraperitoneal (IP) delivery to be the optimal route
same,concentrations in CA-p110α- and CA-p110β-driven tumors,In vivo pharmacokinetics; single IP injection 10 mg/kg,paralleled the plasma concentrations
same,time by which plasma concentration declined to undetectable levels,In vivo pharmacokinetics; [8],≤ 4 h
same,time of highest plasma concentration,In vivo pharmacokinetics; [8],1 h
same,tumor growth,Rat1-CA-p110β tumors [7],significantly impaired
Cc1ccc([N+](=O)[O-])cc1S(=O)(=O)N(C)/N=C/c1cnc2ccc(Br)cn12 [PIK-75],effect on AKT phosphorylation,[1],had much less effect
same,inhibition of phosphorylation of AKT at Thr308 and Ser473,[2],in a dose-dependent manner
Cc1cc(C(C)Nc2ccccc2)c2nc(N3CCOCC3)cc(=O)n2c1 (centres unmarked) [TGX-221],inhibition of phosphorylation of AKT at Thr308 and Ser473,[2],in a dose-dependent manner
